Reference: patent US11919901B2 (Syndax Pharmaceuticals, Inc., priority 2021, dated 2024)

Key:
hERG = hERG (Homo sapiens (Human), UniProt Q12809); assay: Patch clamp assay (hERG tail currents, whole-cell); type: cell-based; details: hERG transfected HEK 293 cells; for hERG % Remaining 30 μM: 30 μM compound; for hERG % Remaining 10 μM: 10 μM compound
Menin-MLL = Menin-MLL (Homo sapiens (Human), UniProt O00255); assay: Determination of binding constants (Ki) to Menin-MLL (HTRF); details: HTRF; 0.25 nM H-FL-Menin, 3.2 nM FITC-MLL-4-43, 24 hr incubation; read-out: Menin-MLL Ki HTRF Assay: Ki
Chain of Menin-MLL (O00255 whole entry): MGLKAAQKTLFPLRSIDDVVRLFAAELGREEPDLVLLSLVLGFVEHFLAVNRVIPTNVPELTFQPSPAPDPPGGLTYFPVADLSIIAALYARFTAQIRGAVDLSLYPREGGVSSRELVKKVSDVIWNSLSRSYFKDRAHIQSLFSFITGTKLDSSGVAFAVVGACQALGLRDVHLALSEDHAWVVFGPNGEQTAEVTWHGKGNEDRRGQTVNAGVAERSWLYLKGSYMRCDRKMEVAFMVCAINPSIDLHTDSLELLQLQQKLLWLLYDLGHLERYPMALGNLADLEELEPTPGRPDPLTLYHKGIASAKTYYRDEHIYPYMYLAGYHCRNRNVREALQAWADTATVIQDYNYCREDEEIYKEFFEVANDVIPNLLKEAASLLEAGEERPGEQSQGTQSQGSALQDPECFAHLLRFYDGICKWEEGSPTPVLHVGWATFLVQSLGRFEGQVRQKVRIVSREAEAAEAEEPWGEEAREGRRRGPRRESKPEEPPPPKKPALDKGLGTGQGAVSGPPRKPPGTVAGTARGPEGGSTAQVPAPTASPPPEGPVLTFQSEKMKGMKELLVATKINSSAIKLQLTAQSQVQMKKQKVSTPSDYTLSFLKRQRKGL

Chain of hERG (Q12809 whole entry): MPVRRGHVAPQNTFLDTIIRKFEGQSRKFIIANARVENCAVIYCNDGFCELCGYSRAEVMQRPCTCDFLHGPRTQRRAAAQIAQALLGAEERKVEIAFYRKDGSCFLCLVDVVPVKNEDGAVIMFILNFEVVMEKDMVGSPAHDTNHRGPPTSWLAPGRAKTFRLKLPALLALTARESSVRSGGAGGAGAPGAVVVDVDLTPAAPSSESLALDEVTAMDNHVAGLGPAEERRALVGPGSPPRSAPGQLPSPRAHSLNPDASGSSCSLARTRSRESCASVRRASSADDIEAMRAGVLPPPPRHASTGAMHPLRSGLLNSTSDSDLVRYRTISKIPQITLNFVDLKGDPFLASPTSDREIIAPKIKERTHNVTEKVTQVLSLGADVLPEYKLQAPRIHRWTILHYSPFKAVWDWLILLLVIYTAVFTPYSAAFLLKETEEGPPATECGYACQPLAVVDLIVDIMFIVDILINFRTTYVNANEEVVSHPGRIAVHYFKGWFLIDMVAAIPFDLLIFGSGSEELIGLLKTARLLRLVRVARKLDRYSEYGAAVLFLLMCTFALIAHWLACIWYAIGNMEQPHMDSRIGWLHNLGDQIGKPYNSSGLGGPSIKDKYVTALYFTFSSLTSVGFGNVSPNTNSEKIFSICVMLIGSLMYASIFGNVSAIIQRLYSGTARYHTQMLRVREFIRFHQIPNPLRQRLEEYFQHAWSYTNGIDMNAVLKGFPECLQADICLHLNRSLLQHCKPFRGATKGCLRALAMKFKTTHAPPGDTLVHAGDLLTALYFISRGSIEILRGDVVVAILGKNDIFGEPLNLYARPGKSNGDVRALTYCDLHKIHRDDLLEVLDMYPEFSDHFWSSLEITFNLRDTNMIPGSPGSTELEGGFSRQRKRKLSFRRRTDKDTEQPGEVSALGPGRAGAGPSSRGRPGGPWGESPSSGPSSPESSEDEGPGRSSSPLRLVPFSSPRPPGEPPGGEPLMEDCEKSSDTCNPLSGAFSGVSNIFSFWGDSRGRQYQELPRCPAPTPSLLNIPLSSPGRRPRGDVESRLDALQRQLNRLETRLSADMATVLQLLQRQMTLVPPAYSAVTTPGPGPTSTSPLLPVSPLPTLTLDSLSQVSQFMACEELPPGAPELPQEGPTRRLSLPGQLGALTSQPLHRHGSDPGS

| Structure (SMILES) | hERG % Remaining 30 μM (hERG) | Ki (Menin-MLL) [nM] | hERG % Remaining 10 μM (hERG) |
| --- | --- | --- | --- |
| CC(C)N(CC#N)C(=O)c1cc(F)ccc1Oc1cncnc1N1CC2(CCN(C[C@@H]3CC[C@@H](NS(=O)(=O)N(C)C)CO3)CC2)C1 [Compound 181, N-(Cyanomethyl)-2-((4-(7-(((2S,5R)-5-((N,N-dimethylsulfamoyl)amino)tetrahydro-2H-pyran-2-yl)methyl)-2,7-diazaspiro[3.5]nonan-2-yl)pyrimidin-5-yl)oxy)-5-fluoro-N-isopropylbenzamide] | +++ (“+++” means ≥66%) | < 1 | – |
| CC(C)N(CC#N)C(=O)c1cc(F)ccc1Oc1cncnc1N1CC2(CCN(C[C@@H]3CC[C@@H](NS(=O)(=O)N4CCC4)CO3)CC2)C1 [Compound 182, 2-((4-(7-(((2S,5R)-5-(Azetidine-1-sulfonamido)tetrahydro-2H-pyran-2-yl)methyl)-2,7-diazaspiro[3.5]nonan-2-yl)pyrimidin-5-yl)oxy)-N-(cyanomethyl)-5-fluoro-N-isopropylbenzamide] | +++ (“+++” means ≥66%) | < 1 | – |
| CC(C)N(CCC#N)C(=O)c1cc(F)ccc1Oc1cncnc1N1CC2(CCN(C[C@@H]3CC[C@@H](NS(=O)(=O)N(C)C)CO3)CC2)C1 [Compound 183, N-(2-Cyanoethyl)-2-((4-(7-(((2S,5R)-5-((N,N-dimethylsulfamoyl)amino)tetrahydro-2H-pyran-2-yl)methyl)-2,7-diazaspiro[3.5]nonan-2-yl)pyrimidin-5-yl)oxy)-5-fluoro-N-isopropylbenzamide] | +++ (“+++” means ≥66%) | < 1 | – |
| CC(C)N(CC(F)F)C(=O)c1cc(F)ccc1Oc1nncnc1N1CC2(CCN(C[C@@H]3CC[C@@H](NS(=O)(=O)N4CCC4)CO3)CC2)C1 [Compound 189, 2-((5-(7-(((2S,5R)-5-(Azetidine-1-sulfonamido)tetrahydro-2H-pyran-2-yl)methyl)-2,7-diazaspiro[3.5]nonan-2-yl)-1,2,4-triazin-6-yl)oxy)-N-(2,2-difluoroethyl)-5-fluoro-N-isopropylbenzamide] | +++ (“+++” means ≥66%) | < 1 | – |
| CC(C)N(C(=O)c1cc(F)ccc1Oc1nncnc1N1CC2(CCN(C[C@@H]3CC[C@@H](NS(=O)(=O)C4CC4)CO3)CC2)C1)C(C)C [Compound 196, 2-((5-(7-(((2S,5R)-5-(Cyclopropanesulfonamido)tetrahydro-2H-pyran-2-yl)methyl)-2,7-diazaspiro[3.5]nonan-2-yl)-1,2,4-triazin-6-yl)oxy)-5-fluoro-N,N-diisopropylbenzamide] | +++ (“+++” means ≥66%) | < 1 | – |
| CCNS(=O)(=O)N[C@@H]1CC[C@@H](CN2CCC3(CC2)CN(c2ncnnc2Oc2ccc(F)cc2C(=O)N(C(C)C)C(C)C)C3)OC1 [Compound 198] | +++ (“+++” means ≥66%) | < 1 | – |
| CC(C)N(C(=O)c1cc(F)ccc1Oc1nncnc1N1CC2(CCN(C[C@@H]3CC[C@@H](NS(=O)(=O)N4CCC4)CO3)CC2)C1)C(C)C [Compound 199, 2-((5-(7-(((2S,5R)-5-(Azetidine-1-sulfonamido)tetrahydro-2H-pyran-2-yl)methyl)-2,7-diazaspiro[3.5]nonan-2-yl)-1,2,4-triazin-6-yl)oxy)-5-fluoro-N,N-diisopropylbenzamide] | +++ (“+++” means ≥66%) | < 1 | – |
| CCN(C(=O)c1cc(F)ccc1Oc1cncnc1N1CC2(CCN(C[C@@H]3CC[C@@H](NS(=O)(=O)N4CCC[C@H]4C)CO3)CC2)C1)C(C)C [Compound 200, N-Ethyl-5-fluoro-N-isopropyl-2-((4-(7-(((2S,5R)-5-(((R)-2-methylpyrrolidine)-1-sulfonamido)tetrahydro-2H-pyran-2-yl)methyl)-2,7-diazaspiro[3.5]nonan-2-yl)pyrimidin-5-yl)oxy)benzamide] | + (“+” means <33%) | < 1 | ++ (“++” means ≥33% and <66%) |
| CCN(C(=O)c1cc(F)ccc1Oc1cncnc1N1CC2(CCN(C[C@@H]3CC[C@@H](NS(=O)(=O)N4CCC[C@@H]4C)CO3)CC2)C1)C(C)C [Compound 201, N-Ethyl-5-fluoro-N-isopropyl-2-((4-(7-(((2S,5R)-5-(((S)-2-methylpyrrolidine)-1-sulfonamido)tetrahydro-2H-pyran-2-yl)methyl)-2,7-diazaspiro[3.5]nonan-2-yl)pyrimidin-5-yl)oxy)benzamide] | + (“+” means <33%) | < 1 | + (“+” means <33%) |
| CC(C)N(C(=O)c1cc(F)ccc1Oc1cncnc1N1CC2(CCN(C[C@@H]3CC[C@@H](NS(=O)(=O)N4CCC[C@@H]4C)CO3)CC2)C1)C(C)C [Compound 202, 5-Fluoro-N,N-diisopropyl-2-((4-(7-(((2S,5R)-5-(((S)-2-methylpyrrolidine)-1-sulfonamido)tetrahydro-2H-pyran-2-yl)methyl)-2,7-diazaspiro[3.5]nonan-2-yl)pyrimidin-5-yl)oxy)benzamide] | + (“+” means <33%) | < 1 | – |
| CC(C)N(C(=O)c1cc(F)ccc1Oc1cncnc1N1CC2(CCN(C[C@@H]3CC[C@@H](NS(=O)(=O)N4CCC[C@H]4C)CO3)CC2)C1)C(C)C [Compound 203, 5-Fluoro-N,N-diisopropyl-2-((4-(7-(((2S,5R)-5-(((R)-2-methylpyrrolidine)-1-sulfonamido)tetrahydro-2H-pyran-2-yl)methyl)-2,7-diazaspiro[3.5]nonan-2-yl)pyrimidin-5-yl)oxy)benzamide] | + (“+” means <33%) | < 1 | – |
| C[C@@H]1COC[C@@H](C)N1C(=O)c1cc(F)ccc1Oc1cncnc1N1CC2(CCN(C[C@@H]3CC[C@@H](NS(=O)(=O)N4CCC[C@H]4C)CO3)CC2)C1 [Compound 208, (R)-N-((3R,6S)-6-((2-(5-(2-((3R,5R)-3,5-Dimethylmorpholine-4-carbonyl)-4-fluorophenoxy)pyrimidin-4-yl)-2,7-diazaspiro[3.5]nonan-7-yl)methyl)tetrahydro-2H-pyran-3-yl)-2-methylpyrrolidine-1-sulfonamide] | +++ (“+++” means ≥66%) | < 1 | – |
| C[C@@H]1COC[C@@H](C)N1C(=O)c1cc(F)ccc1Oc1cncnc1N1CC2(CCN(C[C@@H]3CC[C@@H](NS(=O)(=O)N4CCC[C@@H]4C)CO3)CC2)C1 [Compound 209, (S)-N-((3R,6S)-6-((2-(5-(2-((3R,5R)-3,5-Dimethylmorpholine-4-carbonyl)-4-fluorophenoxy)pyrimidin-4-yl)-2,7-diazaspiro[3.5]nonan-7-yl)methyl)tetrahydro-2H-pyran-3-yl)-2-methylpyrrolidine-1-sulfonamide] | +++ (“+++” means ≥66%) | < 1 | – |
| CO[C@H]1CCN(S(=O)(=O)N[C@@H]2CC[C@@H](CN3CCC4(CC3)CN(c3ncncc3Oc3ccc(F)cc3C(=O)N(C(C)C)C(C)C)C4)OC2)C1 [Compound 210, 5-Fluoro-N,N-diisopropyl-2-((4-(7-(((2S,5R)-5-(((S)-3-methoxypyrrolidine)-1-sulfonamido)tetrahydro-2H-pyran-2-yl)methyl)-2,7-diazaspiro[3.5]nonan-2-yl)pyrimidin-5-yl)oxy)benzamide] | +++ (“+++” means ≥66%) | < 1 | – |
| CO[C@@H]1CCN(S(=O)(=O)N[C@@H]2CC[C@@H](CN3CCC4(CC3)CN(c3ncncc3Oc3ccc(F)cc3C(=O)N(C(C)C)C(C)C)C4)OC2)C1 [Compound 211, 5-Fluoro-N,N-diisopropyl-2-((4-(7-(((2S,5R)-5-(((R)-3-methoxypyrrolidine)-1-sulfonamido)tetrahydro-2H-pyran-2-yl)methyl)-2,7-diazaspiro[3.5]nonan-2-yl)pyrimidin-5-yl)oxy)benzamide] | +++ (“+++” means ≥66%) | < 1 | – |
| CC(C)N(CC(F)F)C(=O)c1cc(F)ccc1Oc1cncnc1N1CC2(CCN(C[C@@H]3CC[C@@H](NS(=O)(=O)N(C)CCCO)CO3)CC2)C1 [Compound 214, N-(2,2-difluoroethyl)-5-fluoro-2-((4-(7-(((2S,5R)-5-((N-(3-hydroxypropyl)-N-methylsulfamoyl)amino)tetrahydro-2H-pyran-2-yl)methyl)-2,7-diazaspiro[3.5]nonan-2-yl)pyrimidin-5-yl)oxy)-N-isopropylbenzamide] | +++ (“+++” means ≥66%) | < 1 | – |
| CCN(C(=O)c1cc(F)ccc1Oc1cncnc1N1CC2(CCN(C[C@@H]3CC[C@@H](NS(=O)(=O)c4ccc(=O)[nH]c4C)CO3)CC2)C1)C(C)C [Compound 217, N-Ethyl-5-fluoro-N-isopropyl-2-((4-(7-(((2S,5R)-5-((2-methyl-6-oxo-1,6-dihydropyridine)-3-sulfonamido)tetrahydro-2H-pyran-2-yl)methyl)-2,7-diazaspiro[3.5]nonan-2-yl)pyrimidin-5-yl)oxy)benzamide] | +++ (“+++” means ≥66%) | < 1 | – |
| CCN(C(=O)c1cc(F)ccc1Oc1cncnc1N1CC2(CCN(C[C@@H]3CC[C@@H](NS(=O)(=O)c4c[nH]c(=O)c(C)c4)CO3)CC2)C1)C(C)C [Compound 218, N-Ethyl-5-fluoro-N-isopropyl-2-((4-(7-(((2S,5R)-5-((5-methyl-6-oxo-1,6-dihydropyridine)-3-sulfonamido)tetrahydro-2H-pyran-2-yl)methyl)-2,7-diazaspiro[3.5]nonan-2-yl)pyrimidin-5-yl)oxy)benzamide] | + (“+” means <33%) | < 1 | – |
